Experimental data from patent US5552421A, “Leukotriene biosynthesis inhibitors” (Boehringer Ingelheim Pharmaceuticals, Inc., priority 1995, dated 1996).

Tested on: LTB4 biosynthesis in human polymorphonuclear leukocytes (PMNs)
Assay: Inhibition of LTB4 biosynthesis in human polymorphonuclear leukocytes (PMNs)
Type: cell-based
Details: Homo sapiens, Leukocyte, Table 1A, Esters; LTB4, A23187-stimulated human PMNs
Method: Inhibition of LTB4, biosynthesis in human polymorphonuclear leukocytes (PMNs)
The inhibition of leukotriene biosynthesis is measured by determining whether and to what extent test compounds can inhibit LTB4 production from endogenous arachidonic acid in human peripheral blood leukocytes.
To 48-well tissue culture plates was added a solution of the test compound followed by addition of human polymorphonuclear leukocytes isolated from peripheral blood at a density of 1.5×10^6 cells/well. Culture plates were preincubated for fifteen minutes with shaking at 28° C. Cells were stimulated with calcium ionophore A23187 at a final concentration of 2.5 μM for an additional ten minutes. The reaction was terminated by the addition of an EGTA solution (10 mM final concentration)followed by centrifugation at 1500 rpm at 10° C. Supernatants were stored at -70° C. LTB4 levels were determined by RIA using a commercially available kit. Nonlinear regression analysis was used to calculate. IC50 values.
The following tables show % inhibition of LTB4 biosynthesis by compounds of the invention at test concentrations indicated, with the determined IC50 shown in μM.

Row | IC50 [nM] | SMILES
1 | 1000 | CCOC(=O)C(Cc1ccccc1)N(C)c1nc2ccccc2s1 (stereo not drawn) [Compound 36]
2 | 520 | CCOC(=O)C(CCc1ccccc1)Nc1nc2ccccc2s1 (stereo not drawn) [Compound 37]
3 | 200 | CCOC(=O)C(C)(Cc1ccccc1)Nc1nc2ccccc2s1 (stereo not drawn) [Compound 38]
4 | 76 | CCOC(=O)C(C)(Cc1ccccc1)Nc1nc2ccccc2o1 (stereo not drawn) [Compound 39]

Same assay, conditions: Homo sapiens, Leukocyte, Table 2, Amides; values with <: see footnote d, Tables 1 and 1A

Row | IC50 [nM] | SMILES
5 | 3000 | NC(=O)[C@H](Cc1ccccc1)Nc1nc2ccccc2s1 [Compound 40]
6 | 3000 | CN(C)C(=O)C(Cc1ccccc1)Nc1nc2ccccc2s1 (stereo not drawn) [Compound 41]
7 | 3000 | CCNC(=O)C(Cc1ccccc1)Nc1nc2ccc(C(C)C)cc2s1 (stereo not drawn) [Compound 42]
8 | < 1000 | CON(C)C(=O)[C@H](Cc1ccccc1)Nc1nc2ccccc2o1 [Compound 43]
9 | 72 | CNC(=O)[C@H](CC1CCCCC1)Nc1nc2cc(C)ccc2o1 [Compound 44, L-N-(5-Methylbenzoxazol-2-yl)cyclohexylalanine-N'-methylamide]
10 | 30 | CON(C)C(=O)[C@H](CC1CCCCC1)Nc1nc2cc(C)ccc2o1 [Compound 45]
11 | 190 | Cc1ccc2oc(N[C@@H](CC3CCCCC3)C(=O)N3CCCCC3)nc2c1 [Compound 46]

Same assay, conditions: Homo sapiens, Leukocyte, Table 3, Phenyl; values with <: see footnote d, Table 1

Row | SMILES | IC50 [nM]
12 | c1ccc(CC(Nc2nc3ccccc3s2)c2ccccc2)cc1 (stereo not drawn) [Compound 47] | 160
13 | Cc1cccc(C(CC2CCCCC2)Nc2nc3ccccc3o2)c1 (stereo not drawn) [Compound 57] | 300
14 | CS(=O)(=O)Nc1ccc2oc(NC(CC3CCCCC3)c3ccccc3)nc2c1 (stereo not drawn) [Compound 60] | 160
15 | CNC(=O)Nc1ccc2oc(NC(CC3CCCCC3)c3ccccc3)nc2c1 (stereo not drawn) [Compound 62] | < 1000
16 | CN(C)C(=O)c1ccc2oc(NC(CC3CCCCC3)c3ccccc3)nc2c1 (stereo not drawn) [Compound 65] | 170

Next, values leading:

Row | IC50 [nM] | SMILES
17 | < 1000 | c1ccc(CC(Nc2nc3ccccc3o2)c2ccccc2)cc1 (stereo not drawn) [Compound 50]
18 | 6.3 | CC(C)c1ccc2oc(NC(CC3CCCCC3)c3ccccc3)nc2c1 (stereo not drawn) [Compound 54]
19 | 300 | Clc1ccc(C(CC2CCCCC2)Nc2nc3ccccc3o2)cc1 (stereo not drawn) [Compound 55]
20 | 80 | Clc1ccccc1C(CC1CCCCC1)Nc1nc2ccccc2o1 (stereo not drawn) [Compound 58]
21 | 13 | Ic1ccc2oc(NC(CC3CCCCC3)c3ccccc3)nc2c1 (stereo not drawn) [Compound 59]
22 | 76 | CC(=O)Nc1ccc2oc(NC(CC3CCCCC3)c3ccccc3)nc2c1 (stereo not drawn) [Compound 61]
23 | 190 | O=C(O)c1ccc2oc(NC(CC3CCCCC3)c3ccccc3)nc2c1 (stereo not drawn) [Compound 63]
24 | < 1000 | NC(=O)c1ccc2oc(NC(CC3CCCCC3)c3ccccc3)nc2c1 (stereo not drawn) [Compound 64]

Same assay, conditions: Leukocyte; Table 1, Esters; LTB4, A23187-stimulated human PMNs; values with < (footnote d): greater than 50% (504 [sic]) inhibition at this concentration, IC50 not characterized further

Row | SMILES | IC50 [nM]
25 | CCOC(=O)C(Cc1ccccc1)Nc1nc2ccccc2s1 (racemic) [Compound 4, DL-N-(Benzothiazol-2-yl)phenylalanine ethyl ester] | 400
26 | CCOC(=O)C(Cc1ccc(Cl)cc1)Nc1nc2ccc(C(C)C)cc2s1 (racemic) [Compound 7, DL-N-(6-Isopropylbenzothiazol-2-yl)-4-chlorophenylalanine ethyl ester] | 330
27 | CCOC(=O)C(Cc1ccc(Br)cc1)Nc1nc2ccccc2s1 (stereo not drawn) [Compound 3] | 150
28 | CCOC(=O)[C@H](Cc1ccccc1)Nc1nc2ccc(C(C)C)cc2s1 [Compound 6] | 250
29 | COC(=O)[C@H](Cc1ccccc1)Nc1nc2ccc(C(C)C)cc2s1 [Compound 8] | 140
30 | CCOC(=O)C(Cc1ccc(Cl)cc1)Nc1nc2ccc(OC)cc2s1 (stereo not drawn) [Compound 9] | 230
31 | COC(=O)[C@@H](Cc1ccccc1)Nc1nc2ccc(C(C)C)cc2s1 [Compound 10] | 650
32 | CCCCc1ccc2nc(NC(Cc3ccc(Cl)cc3)C(=O)OCC)sc2c1 (stereo not drawn) [Compound 11] | 170
33 | CCOC(=O)[C@H](Cc1ccccc1)Nc1nc2ccc(CC)cc2s1 [Compound 12] | 240
34 | CC(C)(C)OC(=O)[C@H](Cc1ccccc1)Nc1nc2ccccc2s1 [Compound 13] | 730
35 | CCOC(=O)[C@H](Cc1ccccc1)Nc1nc2cc(CC)ccc2s1 [Compound 14] | 9
36 | CCOC(=O)[C@H](CC1CCCCC1)Nc1nc2cc(CC)ccc2s1 [Compound 15] | 27
37 | CCOC(=O)[C@H](CC1CCCCC1)Nc1nc2ccccc2s1 [Compound 16] | 6
38 | CCOC(=O)[C@H](Cc1ccccc1)Nc1nc2ccc(C(C)C)cc2o1 [Compound 20] | 220
39 | COC(=O)[C@H](CC1CCCCC1)Nc1nc2ccccc2o1 [Compound 21] | 6.4
40 | COC(=O)[C@@H](CC1CCCCC1)Nc1nc2ccccc2o1 [Compound 22] | 100
41 | COC(=O)[C@H](CC1CCCCC1)Nc1nc2cc(C(C)C)ccc2o1 [Compound 23] | 1
42 | COC(=O)[C@H](CC1CCCCC1)Nc1nc2cc(C)ccc2o1 [Compound 24] | 1.7
43 | Cc1ccc2oc(N[C@@H](CC3CCCCC3)C(=O)OC(C)(C)C)nc2c1 [Compound 25] | < 300
44 | COC(=O)[C@@H](CC1CCCCC1)Nc1nc2cc(C)ccc2o1 [Compound 26] | 16
45 | CCOC(=O)C(Cc1csc(C)n1)Nc1nc2cc(OC)ccc2o1 (stereo not drawn) [Compound 27] | < 300
46 | CCOC(=O)C(Cc1cccnc1)Nc1nc2cc(C(C)C)ccc2o1 (stereo not drawn) [Compound 30] | 190
47 | CCOC(=O)C(Cc1csc(C)n1)Nc1nc2cc(C(C)C)ccc2o1 (stereo not drawn) [Compound 33] | < 30

Results, then the compound that gave them:

Row | IC50 [nM] | SMILES
48 | 200 | CCOC(=O)C(Cc1ccc(Cl)cc1)Nc1nc2ccccc2s1 (stereo not drawn) [Compound 1]
49 | 330 | CCOC(=O)C(Cc1ccc(F)cc1)Nc1nc2ccccc2s1 (stereo not drawn) [Compound 2]
50 | 150 | CCOC(=O)[C@H](Cc1ccccc1)Nc1nc2ccccc2o1 [Compound 17]
51 | 1500 | CCOC(=O)[C@@H](Cc1ccccc1)Nc1nc2ccccc2o1 [Compound 18]
52 | 0.52 | CCOC(=O)[C@H](Cc1ccccc1)Nc1nc2cc(C(C)C)ccc2o1 [Compound 19]
53 | < 300 | CCOC(=O)C(Cc1nccs1)Nc1nc2cc(Cl)ccc2o1 (stereo not drawn) [Compound 28]
54 | 87 | CCOC(=O)C(Cc1csc(C)n1)Nc1nc2cc(Cl)ccc2o1 (stereo not drawn) [Compound 29]
55 | < 100 | CCOC(=O)C(Cc1ccncc1)Nc1nc2cc(C(C)C)ccc2o1 (stereo not drawn) [Compound 31]

Same assay, conditions: Table 4, Pyridyl; values with <: see footnote d, Table 1

Row | IC50 [nM] | SMILES
56 | 1.3 | Cc1ccc2oc(NC(CC3CCCCC3)c3ccccn3)nc2c1 (single isomer, unassigned) [Compound 87]
57 | 45 | Cc1ccc2oc(NC(CC3CCCCC3)c3ccccn3)nc2c1 (single isomer, unassigned) [Compound 88]
58 | 16 | Cc1ccc2oc(NC(CC3CCCCC3)c3cccnc3)nc2c1 (single isomer, unassigned) [Compound 89]
59 | < 1000 | Cc1ccc2oc(NC(CC3CCCCC3)c3cccnc3)nc2c1 (single isomer, unassigned) [Compound 90]
60 | 10 | Fc1ccc(CC(Nc2nc3cc(Cl)ccc3o2)c2ccccn2)cc1 (single isomer, unassigned) [Compound 118]
61 | 320 | Fc1ccc(CC(Nc2nc3cc(Cl)ccc3o2)c2ccccn2)cc1 (single isomer, unassigned) [Compound 119]

Same assay, conditions: Table 10, Oxazolopyridines; values with <: see footnote d, Table 1

Row | IC50 [nM] | SMILES
62 | 15 | Cc1ccc2oc(NC(CC3CCCCC3)c3ccccn3)nc2n1 (single isomer, unassigned) [Compound 166]
63 | 170 | Cc1ccc2oc(NC(CC3CCCCC3)c3ccccn3)nc2n1 (single isomer, unassigned) [Compound 167]
